Experimental data from patent US8642770B2, “Indole derivative” (Takeda Pharmaceutical Company Limited, priority 2010, dated 2014).

melting point	Compound
189 °C	Cc1c(NC(=O)c2ccc(OC[C@@H]3CCCO3)cc2)ccc2c1cc(CNC1CCCC1)n2C [Example 56, N-{2-[(cyclopentylamino)methyl]-1,4-dimethyl-1H-indol-5-yl}-4-[(2S)-tetrahydrofuran-2-ylmethoxy]benzamide]
188 to 189 °C	Cn1c(CNCC(C)(C)O)cc2cc(NC(=O)c3ccc(OCC4CC4)cc3)ccc21 [Example 5, 4-(cyclopropylmethoxy)-N-(2-{[(2-hydroxy-2-methylpropyl)amino]methyl}-1-methyl-1H-indol-5-yl)benzamide]
183 to 184 °C	Cc1c(CN[C@H]2CC[C@](C)(O)CC2)n(C)c2c(C)c(NC(=O)c3ccc(OC[C@@H]4CCCO4)cc3)ccc12 [Example 109, N-(2-{[(trans-4-hydroxy-4-methylcyclohexyl)amino]methyl}-1,3,7-trimethyl-1H-indol-6-yl)-4-[(2S)-tetrahydrofuran-2-ylmethoxy]benzamide]
197 to 200 °C	Cc1c(NC(=O)c2ccc(OC[C@@H]3CCCO3)cc2)ccc2cc(CNCC(C)(C)O)n(C)c12 [Example 82, N-(2-{[(2-hydroxy-2-methylpropyl)amino]methyl}-1,7-dimethyl-1H-indol-6-yl)-4-[(2S)-tetrahydrofuran-2-ylmethoxy]benzamide]
134 to 135 °C	Cc1c(CN[C@H]2CC[C@](C)(O)CC2)[nH]c2c(C)c(NC(=O)c3ccc(OC[C@@H]4CCCO4)cc3)ccc12 [Example 99, N-(2-{[(trans-4-hydroxy-4-methylcyclohexyl)amino]methyl}-3,7-dimethyl-1H-indol-6-yl)-4-[(2S)-tetrahydrofuran-2-ylmethoxy]benzamide]
168 °C	Cc1c(NC(=O)c2ccc(OC[C@@H]3CCCO3)cc2)ccc2cc(CNCC(C)(C)C)[nH]c12 [Example 69, N-(2-{[(2,2-dimethylpropyl)amino]methyl}-7-methyl-1H-indol-6-yl)-4-[(2S)-tetrahydrofuran-2-ylmethoxy]benzamide]
160 °C	O=C(Nc1ccc2[nH]c(CNCC3CCOCC3)cc2c1)c1ccc(OCC2CC2)cc1 [Example 3, 4-(cyclopropylmethoxy)-N-(2-{[(tetrahydro-2H-pyran-4-ylmethyl)amino]methyl}-1H-indol-5-yl)benzamide]
177 to 178 °C	Cc1c(CN[C@H]2CC[C@](C)(O)CC2)[nH]c2c(C)c(NC(=O)c3ccc(OC[C@@H]4CCCO4)cc3F)ccc12 [Example 102, 2-fluoro-N-(2-{[(trans-4-hydroxy-4-methylcyclohexyl)amino]methyl}-3,7-dimethyl-1H-indol-6-yl)-4-[(2S)-tetrahydrofuran-2-ylmethoxy]benzamide]
176 to 177 °C	Cc1c(CNCC2CCOCC2)n(C)c2ccc(NC(=O)c3ccc(OCC4CC4)cc3)cc12 [Example 40, 4-(cyclopropylmethoxy)-N-(1,3-dimethyl-2-{[(tetrahydro-2H-pyran-4-ylmethyl)amino]methyl}-1H-indol-5-yl)benzamide]
122 to 124 °C	Cc1c(CN[C@H]2CC[C@](C)(O)CC2)n(C)c2c(F)c(NC(=O)c3ccc(OC[C@@H]4CCCO4)cc3)ccc12 [Example 112, N-(7-fluoro-2-{[(trans-4-hydroxy-4-methylcyclohexyl)amino]methyl}-1,3-dimethyl-1H-indol-6-yl)-4-[(2S)-tetrahydrofuran-2-ylmethoxy]benzamide]
162 to 163 °C	Cn1c(CNCC(C)(C)C)cc2cc(NC(=O)c3ccc(OCC4CCOC4)cc3)ccc21 (stereo not drawn) [Example 22, N-(2-{[(2,2-dimethylpropyl)amino]methyl}-1-methyl-1H-indol-5-yl)-4-(tetrahydrofuran-3-ylmethoxy)benzamide]
159 to 160 °C	Cn1c(CNCC(C)(C)O)cc2cc(NC(=O)c3ccc(OC[C@@H]4CCCO4)cc3F)ccc21 [Example 27, 2-fluoro-N-(2-{[(2-hydroxy-2-methylpropyl)amino]methyl}-1-methyl-1H-indol-5-yl)-4-[(2S)-tetrahydrofuran-2-ylmethoxy]benzamide]
